Experimental data as given in ChEMBL document CHEMBL1201862, “PubChem BioAssay data set” (2004).
Calls of active or inactive are those of the source.

Columns and labels:
Type in all cases: functional
[1] = target: T1, Caspase-3 (Homo sapiens, UniProt P42574);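 further: Dose-response selectivity test against caspase-3 for candidate inhibitors of sentrin-specific proteases (SENPs)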
T1 sequence (P42574 whole entry): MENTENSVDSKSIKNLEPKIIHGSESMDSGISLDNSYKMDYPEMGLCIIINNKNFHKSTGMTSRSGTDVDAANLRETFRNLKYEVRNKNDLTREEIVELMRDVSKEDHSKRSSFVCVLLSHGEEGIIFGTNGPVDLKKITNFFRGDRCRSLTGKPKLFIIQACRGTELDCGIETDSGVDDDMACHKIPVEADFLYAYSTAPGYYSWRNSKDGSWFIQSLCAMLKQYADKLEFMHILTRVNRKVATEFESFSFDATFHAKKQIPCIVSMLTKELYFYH

[2] = target: T2, Protein RecA (Mycobacterium tuberculosis, UniProt P9WHJ3); experiment: Fluorescence Cell-Free Homogeneous Dose Retest to Identify Inhibitors of RecA-Intein Splicing Activity. [Related pubchem assays (depositor defined):AID2097, AID2223, AID489010, AID492950]
T2 sequence (P9WHJ3 whole entry): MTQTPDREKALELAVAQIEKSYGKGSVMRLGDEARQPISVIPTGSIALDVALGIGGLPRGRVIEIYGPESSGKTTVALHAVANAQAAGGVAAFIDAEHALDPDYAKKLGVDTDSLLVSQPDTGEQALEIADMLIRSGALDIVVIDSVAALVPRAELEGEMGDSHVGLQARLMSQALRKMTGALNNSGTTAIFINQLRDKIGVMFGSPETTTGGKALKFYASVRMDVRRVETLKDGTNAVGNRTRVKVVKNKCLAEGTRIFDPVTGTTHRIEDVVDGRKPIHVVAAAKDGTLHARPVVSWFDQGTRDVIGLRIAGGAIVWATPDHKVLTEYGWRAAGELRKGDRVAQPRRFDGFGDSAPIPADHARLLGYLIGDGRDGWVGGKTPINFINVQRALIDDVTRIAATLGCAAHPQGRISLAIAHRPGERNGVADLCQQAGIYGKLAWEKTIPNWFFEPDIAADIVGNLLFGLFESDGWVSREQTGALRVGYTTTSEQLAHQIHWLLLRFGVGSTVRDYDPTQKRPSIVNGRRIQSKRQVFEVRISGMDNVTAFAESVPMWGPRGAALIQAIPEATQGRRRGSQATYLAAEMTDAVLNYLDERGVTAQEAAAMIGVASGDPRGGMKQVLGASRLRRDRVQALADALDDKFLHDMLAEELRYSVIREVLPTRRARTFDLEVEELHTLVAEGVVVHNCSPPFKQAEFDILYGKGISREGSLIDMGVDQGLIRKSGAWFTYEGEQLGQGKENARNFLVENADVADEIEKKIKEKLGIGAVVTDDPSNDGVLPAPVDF

[3] = target: T3, Sentrin-specific protease 7 (Homo sapiens, UniProt Q9BQF6);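 further: Luminescence-based dose-response confirmation of ultra-high-throughput screening hits, measuring inhibition of SENP7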
T3 sequence (Q9BQF6 whole entry): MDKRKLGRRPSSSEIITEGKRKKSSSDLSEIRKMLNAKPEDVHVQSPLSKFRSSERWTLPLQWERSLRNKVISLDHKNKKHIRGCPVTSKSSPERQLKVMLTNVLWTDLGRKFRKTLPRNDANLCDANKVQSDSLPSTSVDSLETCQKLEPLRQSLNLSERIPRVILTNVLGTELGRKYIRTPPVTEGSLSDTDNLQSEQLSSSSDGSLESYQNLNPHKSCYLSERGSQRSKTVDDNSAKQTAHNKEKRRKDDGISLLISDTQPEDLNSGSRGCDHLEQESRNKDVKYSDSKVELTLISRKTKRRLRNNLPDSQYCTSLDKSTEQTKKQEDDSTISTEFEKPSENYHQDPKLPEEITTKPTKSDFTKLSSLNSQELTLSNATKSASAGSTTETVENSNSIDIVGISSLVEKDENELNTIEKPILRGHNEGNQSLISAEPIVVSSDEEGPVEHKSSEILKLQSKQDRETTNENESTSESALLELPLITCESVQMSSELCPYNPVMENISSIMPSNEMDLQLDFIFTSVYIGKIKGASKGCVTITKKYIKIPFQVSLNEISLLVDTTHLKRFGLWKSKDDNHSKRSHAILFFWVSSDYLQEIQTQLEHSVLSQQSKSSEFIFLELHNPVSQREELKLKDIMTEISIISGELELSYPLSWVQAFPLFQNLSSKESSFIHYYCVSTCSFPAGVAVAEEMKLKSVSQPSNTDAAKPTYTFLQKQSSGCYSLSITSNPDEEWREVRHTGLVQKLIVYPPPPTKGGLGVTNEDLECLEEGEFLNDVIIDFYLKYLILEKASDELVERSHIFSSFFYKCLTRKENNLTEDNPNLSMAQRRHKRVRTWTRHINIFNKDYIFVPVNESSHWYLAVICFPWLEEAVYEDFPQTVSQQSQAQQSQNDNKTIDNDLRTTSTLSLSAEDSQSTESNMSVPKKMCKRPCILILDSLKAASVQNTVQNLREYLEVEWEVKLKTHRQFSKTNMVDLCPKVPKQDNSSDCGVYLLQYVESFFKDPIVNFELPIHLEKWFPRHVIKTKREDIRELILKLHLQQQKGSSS

[4] = target: T4, Replicative DNA helicase DnaB (Mycobacterium tuberculosis, UniProt P9WMR3); experiment: DnaB intein splicing inhibitors, dose response, biochemical, cell-free fluorescence (AID 449749)
T4 sequence (P9WMR3 whole entry): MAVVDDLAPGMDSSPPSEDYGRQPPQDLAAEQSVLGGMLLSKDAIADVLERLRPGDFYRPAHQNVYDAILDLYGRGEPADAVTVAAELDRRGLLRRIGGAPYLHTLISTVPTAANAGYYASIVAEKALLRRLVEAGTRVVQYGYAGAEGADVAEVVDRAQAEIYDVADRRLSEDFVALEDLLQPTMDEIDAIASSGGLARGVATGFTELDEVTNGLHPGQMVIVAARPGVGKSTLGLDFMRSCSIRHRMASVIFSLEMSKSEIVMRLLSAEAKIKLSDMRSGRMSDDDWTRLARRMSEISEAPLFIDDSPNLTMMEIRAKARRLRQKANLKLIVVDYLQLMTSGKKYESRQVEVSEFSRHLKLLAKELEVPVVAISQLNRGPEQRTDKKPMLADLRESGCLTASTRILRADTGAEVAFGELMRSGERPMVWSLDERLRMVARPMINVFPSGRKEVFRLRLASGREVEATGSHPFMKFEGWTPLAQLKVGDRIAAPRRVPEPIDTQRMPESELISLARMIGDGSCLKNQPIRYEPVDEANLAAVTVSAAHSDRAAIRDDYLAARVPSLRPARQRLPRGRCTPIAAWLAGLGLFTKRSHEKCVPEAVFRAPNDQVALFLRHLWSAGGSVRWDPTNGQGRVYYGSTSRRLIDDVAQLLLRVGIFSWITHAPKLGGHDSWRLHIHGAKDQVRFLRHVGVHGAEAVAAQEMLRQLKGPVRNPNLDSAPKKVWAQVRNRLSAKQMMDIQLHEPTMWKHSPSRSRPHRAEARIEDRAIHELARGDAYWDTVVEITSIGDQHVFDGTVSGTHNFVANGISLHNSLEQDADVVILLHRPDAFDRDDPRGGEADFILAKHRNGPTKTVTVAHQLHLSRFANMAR

| Compound | IC50 [1] | EC50 [2] | IC50 [3] | AC50 [4] |
| --- | --- | --- | --- | --- |
| O=C1C=C(Nc2ccccc2C(=O)O)c2ccccc2C1=O | 4.8 µM (active) | 2.34 µM (active) | 7.86 µM (active) | 2.21 µM (active) |
| COc1ccc(NC(=S)Nc2ccc3nsnc3c2)cc1 | 7.54 µM (active) | 17.5 µM (active) | 4.08 µM (active) | > 120 µM (inactive) |
| CC(C)(C)c1cc[n+](C2=C([N-]S(=O)(=O)c3ccccc3)C(=O)c3ccccc3C2=O)cc1 | 76.7 µM (active) | 9.39 µM (active) | 13.5 µM (active) | 9.28 µM (active) |
| O=C1C(=O)c2ccccc2C(O)=C1CCCCl | 37.8 µM (active) | 6.39 µM (active) | 9.05 µM (active) | 6.36 µM (active) |
